This assay has as its system human fibroblasts. Nature of the assay: TMT proteomics of fibroblasts with and without UV exposure, differential expression and pathway analysis. Format: cell-based. The note with it: result in words. On the procedure:
Human fibroblasts were obtained from Cell Applications Inc (Cat. # 106-05a) and were maintained in Dulbecco’s Modified Eagle medium (DMEM, Corning, Cat. #10-013-CV) with 10% fetal bovine serum (Gibco, Cat. #10082147) and 1% penicillin/streptomycin (Gibco, Cat. # 15070-063) in a humidified incubator with 5% CO2 at 37 °C. For ultraviolet radiation, fibroblasts were seeded in a 96-well plate at a density of 25,000 cells/well and maintained at 37 °C for 24 h. Cells were washed once with Hanks’ balanced salt solution (HBSS, Gibco, Cat. #14025-092), then treated for 1 h with different concentrations of compounds prepared in HBSS. Vitamin C (Sigma, Cat. # A5960) served as a positive control. Treated cells were exposed to ultraviolet light (UVP cross-linker, CL1000, 254 nm UV, 8 watts) at a total dose of 20 mJ/cm^2. Following irradiation, the HBSS was replaced with culture medium containing the same concentration of compounds as before irradiation, and cells were again maintained at 37 °C. Cell viability was measured at 24 h post-irradiation using CellTiter-Glo according to the manufacturer’s instructions (Promega, Cat.# G7571). Results were expressed as relative cell viability (%) with respect to control cells (cells without ultraviolet irradiation or compound treatment).
Frozen cell pellets were dissolved for 15 min in 6M Guanidinium Chloride at room temperature to lyse cells. Then, each solution was run on a 10 kDa filter (Pall, TX) and washed with 50 μL of TEAB buffer at 3000 rpm. FASP Digestion ([56]): A stock solution of Trypsin Platinum, Mass Spec Grade (Promega) at 100 μg/mL in 50 mM TEAB, and a specific volume of stock trypsin was added to each sample vial for each set of […] using a 1:50 ratio (Trypsin:Protein). Samples were incubated for 2 h at 50 °C and shaken/mixed at 350 rpm on an Eppendorf ThermoMixer C. TMT Labeling: Samples, now peptides, were labeled using 4 μL of TMTpro Mass Tag Labels (ThermoScientific). After labeling, samples were then shaken/mixed for 45 min to ensure labels were covalently bonded to peptides. The labeling reaction was quenched for 10 min using 1 μL of 5% hydroxyalamine. After quenching, samples were pooled into one 2 mL Eppendorf tube and then dried down using an Eppendorf Vacufuge Plus. Desalting Samples: Dried samples were resuspended in 300 μL of 0.1% TFA in ultrapure HPLC-grade water and vortexed to ensure full solubility. Samples were then desalted using Pierce^TM Peptide Desalting Spin Columns (ThermoScientific). Final eluates (desalted samples) contained 600 μL of 50% HPLC-grade Acetonitrile and 50% ultrapure HPLC-grade water. Desalted samples were then transferred to HPLC vials and were again dried down. […]

For `O=C1O[C@H]([C@@H](O)CO)C(O)=C1O` [Vitamin C, reference compound], the “proteins/pathways up- and downregulated, exposed to UV radiation” value (UV-irradiated cells) is “primarily upregulated proteins associated with cell cycle/DNA repair-related pathways”. The “proteins/pathways up- and downregulated, without UV treatment” value (control conditions without UV) is given as “opposite effects”.
